Laboratory results reported in patent publication US6013625A, “Method and composition for treating thrombosis” (La Jolla Cancer Research Foundation, priority 1994, dated 2000).
Several values for one entry are separate records, joined by “and”; a condition that tells them apart may be missing. Equal entries are not always repeated.

Assays:
[1] = system: platelets stimulated with ADP; assay: ADP-stimulated platelet aggregation (aggregometer, platelet-rich plasma); settings: read-out: ADP-Stimulated Aggregation (IC50), ADP 10 μm, 37° C.
Protocol: Briefly, the change in light transmission was measured through a stirred suspension of platelets in an aggregometer (Model 400 VS, Chrono-Log, Havertown, Pa., USA). […] In studies using thrombin, the PRP was gel-filtered on Sepharose 2B in divalent ion-free Tyrode's solution containing 2% BSA. For all studies, the reference standard was platelet-poor plasma, which was obtained by centrifuging PRP at 1000×g for 5 min.
All aggregation studies were performed at 37° C. with a constantly stirred suspension of 3×10^8 platelets/ml. (Platelet count was determined with the aid of a hemacytometer.) Peptides and stimulants were added to these suspensions in 1% dilutions. The PRP and gel-filtered platelets were used within three hours from the time of blood collection.
Peptide anti-aggregation potencies were determined from dose-responsive curves for the inhibition of the maximum aggregation responses stimulated by physiologic doses of ADP (10 μm) and thrombin (2 U/ml).

[2] = target: T1, fibronectin receptor (Fn-R) (Homo sapiens, UniProt P05556+P08648); assay: Competitive ELISA for fibronectin receptor binding; settings: purified receptor from human placenta, read-out: FnR Binding (IC50)
T1 construct: purified from (100 mM) octyl glucoside-extracted human placenta; from tissue; host or cells: human placenta
Protocol: Peptide binding to purified Fn-R was determined by using a competitive enzyme-linked immunosorbent assay (ELISA) in which fibronectin is immobilized and the binding of solubilized Fn-R is detected with labeled anti-FnR antibodies in the presence of various concentrations of peptide analogue.
Microtiter plates were coated with 110 μl of human fibronectin (at 2 μg/ml) in TBS. The plates were washed three times with TBS that contained 0.05% Tween 20. If necessary, peptides were added after this washing in 10 microliter aliquots. The fibronectin receptor was then added in 2-fold serial dilutions with TBS containing 20 mM octyl glucoside and 2 mM MnCl2. The plates were incubated for three hours at room temperature, washed with 200 μl of the above TBS-Tween buffer. 100 μl of affinity-purified rabbit anti-human fibronectin receptor antibody was added to the wells and the plates were incubated for an additional two hours, washed twice with TBS-Tween and then distilled water. Affinity-purified goat anti-rabbit IgG conjugated to horseradish peroxidase (100 μl) was then added to each well. Bonding reactions were incubated for 16 hours at room temperature. The following day, the plates were washed twice with TBS-Tween and then distilled water. […]

[3] = target: T2, vitronectin receptor (Vn-R) (Homo sapiens, UniProt P05106+P06756); assay: Liposome attachment assay for vitronectin receptor; settings: purified receptor from human placenta, read-out: VnR Binding (IC50)
T2 construct: from tissue; host or cells: human placenta
Protocol: Receptors were purified according to the procedures of Pytela et al. (Methods Enzymol. 144:475 (1987)), incorporated herein by reference. […] After extraction, the suspension was filtered over a Sepharose 6B column and then applied to a GRGDSPK column. Except where stated, all procedures were carried out at 4° C. The peptide column was washed with three volumes of Tris-buffered saline (TBS) containing 1 mM Ca^2+ and 25 mM OG and then with TBS containing 1 mM Ca^2+ and 25 mM octyl thioglucoside (OTG) at room temperature. […] Finally, Ca^2+ and Mg^+2 were added to eluted fractions to achieve final concentrations of 1 mM for both ions.
This assay was performed with minor modifications, according to the method of Pytela et al., Methods Enzymol. 144:475 (1987), incorporated herein by reference. […] An aliquot of the dialyzed sample was counted to assess radioactive content; the receptor-liposome mixture was then diluted to obtain a set radioactivity per unit volume. […]
(§1) In parallel studies with the platelet aggregation experiments (described in Example V), the apparent affinities of peptides for GP IIb/IIIa, fibronectin and vitronectin receptors were determined. […]
(§2) IC50 s for FnR were determined by ELISA (Example III). Those for VnR and GP IIb/IIIa were determined by liposome attachment assay (Example IV). […]

GP IIb/IIIa = GP IIb/IIIa (Homo sapiens, UniProt P05106+P08514); assay: Liposome attachment assay for GP IIb/IIIa; settings: read-out: IIb/IIIa Binding (IC50)
Protocol: This assay was performed with minor modifications, according to the method of Pytela et al., Methods Enzymol. 144:475 (1987), incorporated herein by reference. Briefly, 1:4 mixture of labelled and unlabelled phosphatidylcholine (PC) liposomes was dissolved under nitrogen and diluted with an equal volume of purified receptor (purified as described in Example II) to achieve a fixed predetermined receptor-liposome concentration ratio. This mixture was then dialyzed overnight at 4° C. in phosphate buffered saline (PBS) containing 1 mM Ca^2+. An aliquot of the dialyzed sample was counted to assess radioactive content; the receptor-liposome mixture was then diluted to obtain a set radioactivity per unit volume.
Microtiter plates were coated with 10 μg of vitronectin. Non-specific sites were blocked for 2 hours at 37° C. in PBS containing 5 mg/ml BSA and 1 mM each of CaCl2 and MgCl2. The plates were then rinsed twice with PBS containing 1 mM Ca^+2 and Mg^+2, and 100 μl of the liposome-receptor mixture was added to each well. […]
as §1, §2

platelets [4] = assay: Ex vivo platelet aggregation after peptide injection in the canine coronary thrombosis model; parameters: species or system dog; settings: for reduction of ex vivo aggregation relative to control levels: 3 mg/kg
Protocol: For all ex vivo studies (see FIG. 3), control aggregation values were standardized to the percentages of light transmission observed in PRP and PPP samples (0% and 100%, respectively).
Animals were randomly assigned to two treatment groups: vehicle control (i.e., normal saline) or RGD peptides at various concentrations. Peptides were administered intra-atrially in both bolus and continuous injections. […] A continuous infusion of the same peptide was then started immediately after completion of this initial injection. Animals that received a 5 mg/kg bolus also received a 5 mg/kg/hr infusion, whereas animals that received a 10 mg/kg bolus also received a 10 mg/kg/hr infusion. The anti-thrombotic effects of the peptides were monitored until 30 minutes after the occurrence of a persistent, occlusive thrombus or five hours after the initiation of electrical stimulation (whichever resulted first). If an occlusive thrombus had not developed within four hours after the initiation of current, the peptide infusion was stopped.
Platelet counts and ex vivo aggregation studies were performed one hour before and 1, 3, and 5 hours after application of anodal direct current.
Platelet aggregation was also determined ex vivo at one, three, and five hours after current application. For these studies, arachidonic acid, or collagen was again used to stimulate the platelets.

coronary thrombosis = assay: Electrically induced canine coronary thrombosis, time to full occlusion; type: in vivo, dog
Protocol: Male mongrel dogs weighing 14 to 20 kg were selected based on proper aggregation of their platelets in response to arachidonic acid, collagen, and adenosine disphosphate (ADP) and based on similar weights and hemodynamic properties.
Before surgery, the animals were anesthetized with sodium pentobarbital (30 mg/kg, i.v.) and then intubated and ventilated on room air with positive pressure using a respirator (Harvard Apparatus, S. Natick, Mass.) at a volume of 30 ml/kg and a frequency of 12 breaths/min. Surgery, performed under aseptic conditions, was begun with the placement of cannulae into the left carotid artery and jugular vein for monitoring arterial blood pressure (Statham P23 pressure transducer, Gould, Inc., Cardiovascular Products, Oxnard, Calif.) and administering intravenous fluids.
The heart was exposed via a left thoracotomy through the 5th intercostal space. A 2-cm segment of the left circumflex coronary artery (LCCA) was isolated from surrounding tissue by blunt dissection. […] The intra-coronary electrode was constructed by attaching a 25-gauge hypodermic needle tip to a 30-gauge Teflon-insulated silver-coated copper wire. The mechanical occluder was constructed of stainless steel in a C shape with a Teflon screw (2 mm diameter) on top. It was adjusted to control vessel circumference and decrease the reactive hyperemic flow due to a 10-sec (full) occlusion by 50-70% without affecting basal coronary blood flow (FIG. 1). A monopolar epicardial electrode was sutured to the surface of the ventricle in the region of LCCA distribution to monitor ischemic changes in the electrocardiogram (ECG). The left atrium was cannulated with polythylene tubing for administration of the peptide. Continuous recordings of blood pressure, limb lead II ECG, epicardial electrogram, and mean and phasic LCCA blood flow were obtained on a Model 7 polygraph (Grass Instrument Co., Quincy, Mass.).
One hour after the completion of surgery, a 100 micro-amp continuous anodal direct current delivered from a 9 volt nickel-cadmium battery was applied to the intimal surface of the LCCA. The anode of the battery was in series with a 250,000 ohm potentiometer and the intraluminal coronary artery electrode. The electric circuit was completed by placing the cathode in a subcutaneous site. Electrical stimulation was applied for three hours. At the conclusion of each experiment, the heart was fibrillated electrically and quickly removed, and the LCCA was dissected free as far as possible to verify the position of the implanted anodal electrode.
Animals were randomly assigned to two treatment groups: vehicle control (i.e., normal saline) or RGD peptides at various concentrations. Peptides were administered intra-atrially in both bolus and continuous injections. Each bolus injection consisted of 5 or 10 mg/kg and was administered 15 minutes before application of the current. A continuous infusion of the same peptide was then started immediately after completion of this initial injection. Animals that received a 5 mg/kg bolus also received a 5 mg/kg/hr infusion, whereas animals that received a 10 mg/kg bolus also received a 10 mg/kg/hr infusion. The anti-thrombotic effects of the peptides were monitored until 30 minutes after the occurrence of a persistent, occlusive thrombus or five hours after the initiation of electrical stimulation (whichever resulted first). If an occlusive thrombus had not developed within four hours after the initiation of current, the peptide infusion was stopped.
Coronary thrombosis was quantified as the time to full occlusion. The effects of the various peptide treatments on coronary thrombosis is illustrated in FIG. 4.

platelets [5] = assay: Ex vivo ADP-stimulated platelet aggregation in baboon PRP; settings: animal 2; ADP 10 μm; 0, 1 and 2 hours
Protocol: At one- and two-hour time points, template bleeding times were measured, and blood samples were drawn to assess the hematology aggregation studies. Platelet aggregation studies were performed as described in Example V using ADP as the stimulus.
In addition, platelet aggregation studies were conducted on PRP derived from the second animal. Whole blood was drawn at three time points (0, 1 and 2 hours) of both control and experimental shunts.

[6] = 10 mg/kg, all three time points
[7] = 10 mg/kg bolus + 10 mg/kg/hr, intra-atrial

T1 sequence (P08648 42-894 limits assumed): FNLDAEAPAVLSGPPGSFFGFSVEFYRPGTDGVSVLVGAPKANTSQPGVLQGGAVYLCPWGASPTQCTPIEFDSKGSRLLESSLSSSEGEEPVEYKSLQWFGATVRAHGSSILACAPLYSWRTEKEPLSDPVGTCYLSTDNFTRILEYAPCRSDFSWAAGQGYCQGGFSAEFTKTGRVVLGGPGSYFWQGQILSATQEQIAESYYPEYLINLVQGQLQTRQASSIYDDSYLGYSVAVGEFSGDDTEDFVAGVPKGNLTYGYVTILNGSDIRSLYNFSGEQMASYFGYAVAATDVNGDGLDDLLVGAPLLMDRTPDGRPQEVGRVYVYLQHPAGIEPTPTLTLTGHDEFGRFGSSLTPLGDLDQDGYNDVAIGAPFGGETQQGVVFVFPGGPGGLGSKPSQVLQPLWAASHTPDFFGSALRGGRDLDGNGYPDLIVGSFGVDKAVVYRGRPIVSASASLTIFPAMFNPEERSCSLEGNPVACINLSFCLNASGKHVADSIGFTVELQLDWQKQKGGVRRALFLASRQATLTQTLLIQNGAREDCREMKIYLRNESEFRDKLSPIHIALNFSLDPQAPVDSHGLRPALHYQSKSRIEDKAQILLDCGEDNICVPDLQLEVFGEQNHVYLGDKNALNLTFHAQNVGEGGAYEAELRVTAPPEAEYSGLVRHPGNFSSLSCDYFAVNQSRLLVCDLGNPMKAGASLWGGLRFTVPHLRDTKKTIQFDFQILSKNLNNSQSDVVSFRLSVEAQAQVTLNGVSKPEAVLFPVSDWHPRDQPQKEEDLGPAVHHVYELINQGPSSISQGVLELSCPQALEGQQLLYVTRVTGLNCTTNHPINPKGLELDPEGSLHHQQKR
T1 sequence (P08648 895-1049 partner limits assumed): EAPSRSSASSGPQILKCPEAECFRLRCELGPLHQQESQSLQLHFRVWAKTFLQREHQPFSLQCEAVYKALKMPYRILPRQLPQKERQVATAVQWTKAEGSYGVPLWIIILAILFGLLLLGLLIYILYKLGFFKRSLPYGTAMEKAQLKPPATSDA
T1 sequence (P05556 21-798): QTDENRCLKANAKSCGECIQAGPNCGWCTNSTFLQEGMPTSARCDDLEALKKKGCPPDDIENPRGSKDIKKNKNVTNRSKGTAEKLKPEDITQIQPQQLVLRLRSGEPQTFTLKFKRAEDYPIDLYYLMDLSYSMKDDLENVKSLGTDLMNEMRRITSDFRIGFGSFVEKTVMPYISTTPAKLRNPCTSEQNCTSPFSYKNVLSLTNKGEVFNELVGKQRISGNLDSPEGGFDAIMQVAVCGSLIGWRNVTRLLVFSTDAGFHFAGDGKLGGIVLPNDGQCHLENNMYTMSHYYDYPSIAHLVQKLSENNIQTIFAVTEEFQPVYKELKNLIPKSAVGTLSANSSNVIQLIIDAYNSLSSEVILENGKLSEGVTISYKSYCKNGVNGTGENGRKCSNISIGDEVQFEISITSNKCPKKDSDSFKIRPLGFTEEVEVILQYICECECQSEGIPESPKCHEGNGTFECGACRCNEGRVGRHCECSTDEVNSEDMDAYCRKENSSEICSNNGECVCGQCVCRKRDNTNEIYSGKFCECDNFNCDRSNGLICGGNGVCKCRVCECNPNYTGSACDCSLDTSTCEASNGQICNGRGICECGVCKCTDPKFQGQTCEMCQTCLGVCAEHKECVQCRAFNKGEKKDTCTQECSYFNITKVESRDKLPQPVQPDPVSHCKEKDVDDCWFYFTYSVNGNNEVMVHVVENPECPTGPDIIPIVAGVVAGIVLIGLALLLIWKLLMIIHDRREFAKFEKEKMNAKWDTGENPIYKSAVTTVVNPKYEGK
T2 sequence (P06756 31-889 limits assumed): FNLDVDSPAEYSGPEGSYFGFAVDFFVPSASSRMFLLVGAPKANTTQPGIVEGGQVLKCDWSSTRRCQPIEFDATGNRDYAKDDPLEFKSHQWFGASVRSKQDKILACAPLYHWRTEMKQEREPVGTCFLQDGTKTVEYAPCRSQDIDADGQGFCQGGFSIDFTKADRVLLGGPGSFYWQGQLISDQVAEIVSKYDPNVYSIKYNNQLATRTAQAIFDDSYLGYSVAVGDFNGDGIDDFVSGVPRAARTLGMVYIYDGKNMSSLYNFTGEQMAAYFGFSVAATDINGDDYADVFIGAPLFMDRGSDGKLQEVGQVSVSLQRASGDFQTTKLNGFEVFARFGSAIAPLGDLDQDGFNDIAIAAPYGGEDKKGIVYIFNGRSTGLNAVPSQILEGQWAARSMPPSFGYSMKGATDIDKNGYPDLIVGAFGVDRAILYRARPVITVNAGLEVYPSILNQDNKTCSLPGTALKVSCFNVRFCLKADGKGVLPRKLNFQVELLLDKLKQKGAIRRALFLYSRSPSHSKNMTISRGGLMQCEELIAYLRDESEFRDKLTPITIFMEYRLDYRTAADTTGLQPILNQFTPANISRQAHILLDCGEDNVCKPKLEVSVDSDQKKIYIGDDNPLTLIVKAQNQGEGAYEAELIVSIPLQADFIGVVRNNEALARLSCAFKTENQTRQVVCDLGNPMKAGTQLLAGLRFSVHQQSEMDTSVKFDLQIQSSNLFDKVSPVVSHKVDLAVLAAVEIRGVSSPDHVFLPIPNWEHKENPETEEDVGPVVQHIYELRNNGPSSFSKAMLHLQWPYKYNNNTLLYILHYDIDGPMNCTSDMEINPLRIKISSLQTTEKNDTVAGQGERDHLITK
T2 sequence (P06756 891-1048 partner limits assumed): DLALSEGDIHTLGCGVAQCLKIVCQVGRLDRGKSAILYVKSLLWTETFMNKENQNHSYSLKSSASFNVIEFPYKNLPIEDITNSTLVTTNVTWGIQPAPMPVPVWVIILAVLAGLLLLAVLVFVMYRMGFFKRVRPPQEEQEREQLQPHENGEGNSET
T2 sequence (P05106 27-788): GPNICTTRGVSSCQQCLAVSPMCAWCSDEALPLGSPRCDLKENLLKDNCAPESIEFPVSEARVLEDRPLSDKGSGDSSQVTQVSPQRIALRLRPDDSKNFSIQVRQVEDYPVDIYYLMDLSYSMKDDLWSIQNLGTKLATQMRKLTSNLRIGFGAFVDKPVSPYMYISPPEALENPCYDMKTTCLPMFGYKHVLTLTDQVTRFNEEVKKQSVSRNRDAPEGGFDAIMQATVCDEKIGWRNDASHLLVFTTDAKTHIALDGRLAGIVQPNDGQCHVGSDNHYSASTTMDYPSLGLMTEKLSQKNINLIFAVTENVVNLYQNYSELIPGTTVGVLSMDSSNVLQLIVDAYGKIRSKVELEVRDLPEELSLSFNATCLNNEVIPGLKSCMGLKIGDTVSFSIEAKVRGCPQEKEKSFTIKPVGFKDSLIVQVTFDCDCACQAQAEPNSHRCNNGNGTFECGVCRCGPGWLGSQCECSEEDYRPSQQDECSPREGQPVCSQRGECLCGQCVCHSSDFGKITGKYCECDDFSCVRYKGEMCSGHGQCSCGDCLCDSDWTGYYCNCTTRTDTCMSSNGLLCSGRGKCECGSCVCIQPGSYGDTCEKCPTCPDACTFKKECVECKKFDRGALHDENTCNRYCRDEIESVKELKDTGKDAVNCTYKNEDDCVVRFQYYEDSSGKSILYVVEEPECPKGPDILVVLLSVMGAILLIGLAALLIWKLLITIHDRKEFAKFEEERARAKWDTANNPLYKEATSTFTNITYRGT
Chain of GP IIb/IIIa (P08514 32-887 limits assumed): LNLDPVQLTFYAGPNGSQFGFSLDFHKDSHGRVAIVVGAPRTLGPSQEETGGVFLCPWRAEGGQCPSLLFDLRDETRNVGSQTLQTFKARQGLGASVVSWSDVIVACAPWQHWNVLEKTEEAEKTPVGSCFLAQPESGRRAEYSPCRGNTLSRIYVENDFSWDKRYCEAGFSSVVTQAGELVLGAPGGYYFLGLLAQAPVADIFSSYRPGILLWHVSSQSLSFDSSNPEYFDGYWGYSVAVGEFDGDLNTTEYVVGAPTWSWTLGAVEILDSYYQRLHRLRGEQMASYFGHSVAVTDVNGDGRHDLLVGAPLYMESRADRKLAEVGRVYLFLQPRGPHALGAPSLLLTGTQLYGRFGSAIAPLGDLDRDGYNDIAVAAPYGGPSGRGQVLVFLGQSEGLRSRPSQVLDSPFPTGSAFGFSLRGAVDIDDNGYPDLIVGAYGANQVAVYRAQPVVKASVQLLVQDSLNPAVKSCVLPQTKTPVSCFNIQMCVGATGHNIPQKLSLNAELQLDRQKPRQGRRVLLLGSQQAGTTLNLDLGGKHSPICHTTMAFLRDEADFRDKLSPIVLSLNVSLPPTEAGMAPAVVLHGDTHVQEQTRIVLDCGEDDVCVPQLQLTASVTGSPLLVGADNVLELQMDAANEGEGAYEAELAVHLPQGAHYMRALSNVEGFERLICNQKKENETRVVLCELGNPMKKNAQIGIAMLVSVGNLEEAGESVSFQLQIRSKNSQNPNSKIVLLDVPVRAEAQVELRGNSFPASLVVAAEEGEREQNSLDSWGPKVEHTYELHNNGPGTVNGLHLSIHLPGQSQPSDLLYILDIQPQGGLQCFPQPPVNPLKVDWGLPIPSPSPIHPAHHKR
Chain of GP IIb/IIIa (P08514 891-1039 partner limits assumed): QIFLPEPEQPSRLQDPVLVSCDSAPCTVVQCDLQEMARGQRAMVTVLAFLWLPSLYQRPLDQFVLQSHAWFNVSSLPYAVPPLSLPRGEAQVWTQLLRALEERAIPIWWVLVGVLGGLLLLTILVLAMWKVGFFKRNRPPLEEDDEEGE
Chain of GP IIb/IIIa (P05106 27-788): as the sequence (P05106 27-788) above

(t-but-am-Pam-Pmp)GHRGDLRPenA
IC50 [1]: 89 µM

FRGDSPDG
IC50 [2]: 0.12 µM

GHRGDLRDASG
IC50 [3]: 36.8 µM

GPGRGDSPCA
IC50 (GP IIb/IIIa): 20 µM

GPenGHRGDLRCA
inhibition of ADP-stimulated ex vivo aggregation (platelets [4]; 10 mg/kg, 1, 3 and 5 h): substantially inhibited
inhibition of AA-stimulated ex vivo aggregation relative to control levels (platelets [4]; [6]): 43-70%
inhibition of collagen-stimulated ex vivo aggregation relative to control levels (platelets [4]; [6]): 12-50%
time to full occlusion (coronary thrombosis) (coronary thrombosis; [7]): did not significantly influence
ex vivo platelet responsiveness to ADP (platelets [5]): completely unresponsive

GRGDSPDG
IC50 [2]: 0.005 µM

RPenGHRGDWRCR
blockade of all ex vivo aggregation responses (platelets [4]; 5 mg/kg): completely or near-maximally blocked
inhibition of ex vivo platelet activation by collagen (platelets [4]; 5 mg/kg): near-maximal inhibition
platelet responsiveness ex vivo to ADP and AA (platelets [4]; 5 mg/kg, all three time points): completely unresponsive
thrombus formation in animals whose circulating platelet levels were one-third of normal (coronary thrombosis; 5 mg/kg): able to prevent thrombus formation
time to full occlusion (coronary thrombosis) (coronary thrombosis; 5 mg/kg bolus + 5 mg/kg/hr, intra-atrial): significantly prolonged
time to full occlusion (coronary thrombosis) (coronary thrombosis; [7]): completely prevented occlusion

RPenGRGDWPCR
reduction of ex vivo aggregation relative to control levels (platelets [4]; one hour): 20-58%
reduction of ex vivo aggregation relative to control levels (platelets [4]; three and five hours, listed as 4R): 75-100% and 72-100%
ex vivo platelet responsiveness to all modes of stimulation (platelets [4]; 10 mg/kg, all time points): unresponsive
time to full occlusion (coronary thrombosis) (coronary thrombosis; 3 mg/kg): ineffective
time to full occlusion (coronary thrombosis) (coronary thrombosis; [7]): prevented occlusion
